# Assay results from ChEMBL document CHEMBL5154678, “Lysine Stapling Screening Provides Stable and Low Toxic Cationic Antimicrobial Peptides Combating Multidrug-Resistant Bacteria In Vitro and In Vivo” (J Med Chem, 2022).
# The source made the active and inactive calls. No cut-off for these calls is given here. Starred links: 1 amine or outer side, 2 acyl side, 3 side chain; linkers in the order of their positions; H or OH if unused. Positions of bridges follow the written chain, without caps; N, C: chain ends. Non-standard residues stand in square brackets, D forms with d. Residues, ends and D or L forms follow the SMILES beside them. X1 = O=C([C@H](CCCCNCC=[*:3])N[*:1])[*:2]
# What was measured:
# [1] = Toxicity in C57BL/6 mouse assessed as effect on blood urea nitrogen level at 5 to 20 mg/kg, ip administered once daily for 5 days and measured after 6 days; assay type: organism-based; conditions: in vivo, 120 h, dose 5-20 mg/kg, time 5 day
# [2] = Toxicity in C57BL/6 mouse assessed as effect on alanine aminotransferase level at 5 to 20 mg/kg, ip administered once daily for 5 days and measured after 6 days; assay type: organism-based; conditions: in vivo, 120 h, dose 5-20 mg/kg, time 5 day
# [3] = Toxicity in C57BL/6 mouse assessed as effect on body weight at 5 to 20 mg/kg, ip administered once daily for 5 days and measured every 24 hrs; assay type: organism-based; conditions: in vivo, 120 h, dose 5-20 mg/kg, time 5 day
# Staphylococcus aureus [4] = assay: Antibacterial activity against methicillin-resistant Staphylococcus aureus BNCC 186335 infected in mouse C57BL/6 assessed as reduction in intracellular bacterial burden in spleen at 2 mg/kg ,ip incubated for 24 hrs; assay type: functional, organism-based
# Cell membrane [5] = assay: Induction of membrane disruption in multidrug-resistant Acinetobacter baumannii assessed as loss of cell integrity at 16 ug/ml measured after 2 hrs by SEM analysis; assay type: subcellular; conditions: dose 16.0 µg/ml
# Cell membrane [6] = assay: Induction of membrane disruption in methicillin-resistant Staphylococcus aureus BNCC 186335 assessed as loss of cell integrity at 16 ug/ml measured after 2 hrs by SEM analysis; assay type: subcellular; conditions: dose 16.0 µg/ml
# Cell membrane [7] = assay: Induction of membrane damage in multidrug-resistant Acinetobacter baumannii assessed as concentration of stained cells incubated for 2 hrs by propidium iodide staining based flow cytometer assay; assay type: subcellular; conditions: dose 16.0 µg/ml
# Cell membrane [8] = assay: Induction of membrane damage in methicillin-resistant Staphylococcus aureus BNCC 186335 assessed as concentration of stained cells incubated for 2 hrs by propidium iodide staining based flow cytometer assay; assay type: subcellular; conditions: DDE = dose-dependent effect
# Staphylococcus aureus [9] = assay: Antibacterial activity against methicillin-resistant Staphylococcus aureus assessed as inhibition of bacterial growth incubated for 16 hrs by broth microdilution method; assay type: functional
# Staphylococcus aureus [10] = assay: Antibacterial activity against Staphylococcus aureus BNCC 186335 assessed as inhibition of bacterial growth incubated for 16 hrs by broth microdilution method; assay type: functional
# Listeria monocytogenes = assay: Antibacterial activity against Listeria monocytogenes assessed as inhibition of bacterial growth incubated for 16 hrs by broth microdilution method; assay type: functional
# Staphylococcus aureus [11] = assay: Antibacterial activity against methicillin-resistant Staphylococcus aureus BNCC 186335 infected in mouse C57BL/6 assessed as reduction in intracellular bacterial burden in liver at 2 mg/kg ,ip incubated for 24 hrs; assay type: functional, organism-based
# Pseudomonas aeruginosa [12] = assay: Antibacterial activity against Pseudomonas aeruginosa BNCC 125486 assessed as inhibition of bacterial growth incubated for 16 hrs by broth microdilution method; assay type: functional
# Escherichia coli [13] = assay: Antibacterial activity against Escherichia coli BNCC 133264 assessed as inhibition of bacterial growth incubated for 16 hrs by broth microdilution method; assay type: functional
# Escherichia coli [14] = assay: Antibacterial activity against cephalosporin-resistant Escherichia coli BNCC 133264 assessed as inhibition of bacterial growth incubated for 16 hrs by broth microdilution method; assay type: functional
# Erythrocyte = assay: Hemolytic activity against human RBC assessed as concentration required to cause 10% hemolysis; assay type: toxicity, cell-based
# HEK-293T [15] = assay: Cytotoxicity against human HEK293T cells assessed as cell survival rate at 64 Ug/ml incubated for 24 hrs by MTT assay relative to control; assay type: toxicity, cell-based; conditions: dose 64 µg/ml
# Staphylococcus aureus [16] = assay: Antibacterial activity against methicillin-resistant Staphylococcus aureus BNCC 186335 assessed as inhibition of bacterial growth incubated for 4 hrs in presence of 25% plasma by broth microdilution method; assay type: functional
# [17] = Stability in human plasma assessed as half life measured after 24 hrs by HPLC analysis; assay type: ADME, cell-free
# Enterococcus faecium = assay: Antibacterial activity against multidrug-resistant Enterococcus faecium assessed as inhibition of bacterial growth incubated for 16 hrs by broth microdilution method; assay type: functional
# Staphylococcus aureus [18] = assay: Antibacterial activity against multidrug-resistant Staphylococcus aureus BNCC 186335 assessed as inhibition of bacterial growth incubated for 16 hrs by broth microdilution method; assay type: functional
# Klebsiella pneumoniae = assay: Antibacterial activity against multidrug-resistant Klebsiella pneumoniae assessed as inhibition of bacterial growth incubated for 16 hrs by broth microdilution method; assay type: functional
# Acinetobacter baumannii [19] = assay: Antibacterial activity against multidrug-resistant Acinetobacter baumannii assessed as inhibition of bacterial growth incubated for 16 hrs by broth microdilution method; assay type: functional
# Pseudomonas aeruginosa [20] = assay: Antibacterial activity against multidrug-resistant Pseudomonas aeruginosa BNCC 125486 assessed as inhibition of bacterial growth incubated for 16 hrs by broth microdilution method; assay type: functional
# Escherichia coli [21] = assay: Antibacterial activity against multidrug-resistant Escherichia coli BNCC 133264 assessed as inhibition of bacterial growth incubated for 16 hrs by broth microdilution method; assay type: functional
# Acinetobacter baumannii [22] = assay: Bactericidal activity against multidrug-resistant Acinetobacter baumannii assessed as log reduction in colony forming unit at 32 ug/ml measured after 10 mins by time kill assay; assay type: functional, organism-based; conditions: dose 32.0 µg/ml
# Cell membrane [23] = assay: Induction of membrane damage in methicillin-resistant Staphylococcus aureus BNCC 186335 assessed as disruption of membrane integrity at 16 ug/ml incubated for 2 hrs by propidium iodide staining based assay; conditions: dose 16.0 µg/ml
# [24] = Toxicity in C57BL/6 mouse assessed as effect on aspartate transaminase level at 5 to 20 mg/kg, ip administered once daily for 5 days and measured after 6 days; assay type: organism-based; conditions: in vivo, 120 h, dose 5-20 mg/kg, time 5 day
# [25] = Toxicity in C57BL/6 mouse assessed as abnormalities and pathological changes in liver at 20 mg/kg, ip administered once daily for 5 days by H and E staining based assay; assay type: organism-based; conditions: in vivo, 120 h, time 5 day
# [26] = Toxicity in C57BL/6 mouse assessed as abnormalities and pathological changes in kidney at 20 mg/kg, ip administered once daily for 5 days by H and E staining based assay; assay type: organism-based; conditions: in vivo, 120 h, time 5 day
# HEK-293T [27] = assay: Cytotoxicity against human HEK293T cells assessed as cell survival rate at 256 ug/ml incubated for 24 hrs by MTT assay; assay type: toxicity, cell-based; conditions: dose 256 µg/ml
# Staphylococcus aureus [28] = assay: Drug resistance development in Staphylococcus aureus assessed as change in MIC at sub-MIC concentration measured after 60 passages; assay type: functional, organism-based
# HEK-293T [29] = assay: Cytotoxicity against human HEK293T cells assessed as cell survival rate at 128 ug/ml incubated for 24 hrs by MTT assay relative to control; assay type: toxicity, cell-based; conditions: dose 128 µg/ml
# Acinetobacter baumannii [30] = assay: Bactericidal activity against multidrug-resistant Acinetobacter baumannii assessed as log reduction in colony forming unit at 32 ug/ml measured after 20 mins by time kill assay; assay type: functional, organism-based; conditions: dose 32.0 µg/ml
# Staphylococcus aureus [31] = assay: Bactericidal activity against methicillin-resistant Staphylococcus aureus BNCC 186335 assessed as log reduction in colony forming unit at 32 ug/ml measured after 30 mins by time kill assay; assay type: functional, organism-based; conditions: dose 32.0 µg/ml
SMILES,Activity (Cell membrane [5]),Activity (Cell membrane [6]),Activity (Cell membrane [7]) [%],Activity (Cell membrane [8]),MIC (Staphylococcus aureus [9]) [µg/mL],MIC (Staphylococcus aureus [10]) [µg/mL],MIC (Listeria monocytogenes) [µg/mL],MIC (Pseudomonas aeruginosa [12]) [µg/mL],MIC (Escherichia coli [13]) [µg/mL],MIC (Escherichia coli [14]) [µg/mL],MHC (Erythrocyte) [µg/mL],half-life [17] [h],MIC (Enterococcus faecium) [µg/mL],MIC (Staphylococcus aureus [18]) [µg/mL],MIC (Klebsiella pneumoniae) [µg/mL],MIC (Acinetobacter baumannii [19]) [µg/mL],MIC (Pseudomonas aeruginosa [20]) [µg/mL],MIC (Escherichia coli [21]) [µg/mL],Activity (Cell membrane [23]),Activity (HEK-293T [27]),further results
CC(C)[C@H](N)C(=O)N[C@@H](CCCCN)C(=O)N[C@@H](CCCNC(=N)N)C(=O)N[C@@H](Cc1ccccc1)C(=O)N[C@@H](CCCCN)C(=O)N[C@H]1CCCCNC/C=C/CNCCCC[C@@H](C(=O)N[C@@H](Cc2ccccc2)C(=O)N[C@@H](CCCCN)C(=O)N[C@@H](CCCCN)C(=O)N[C@@H](Cc2ccccc2)C(=O)N[C@H](C(N)=O)C(C)C)NC(=O)[C@H](CCCNC(=N)N)NC(=O)[C@H](Cc2ccccc2)NC(=O)[C@H](Cc2ccccc2)NC1=O (H-VKRFK[X1]FFR[X1]FKKFV-NH2; staple (E) 6-10),Active,Active,80,Dde,2,2,4,16,2,8,> 128,13,4,8,32,4,8,4,Active,Toxic,Activity [1]: Non-Toxic; Activity [2]: Non-Toxic; Activity [3]: Non-Toxic; Activity (Staphylococcus aureus [4]): Active; Activity (Staphylococcus aureus [11]): Active; Activity (HEK-293T [15]): Toxic; Activity (Staphylococcus aureus [16]): Active; Activity (Acinetobacter baumannii [22]): Active; Activity [24]: Non-Toxic; Activity [25]: Non-Toxic; Activity [26]: Non-Toxic; Activity (Staphylococcus aureus [28]): Active
CC(C)[C@H](N)C(=O)N[C@@H](CCCCN)C(=O)N[C@@H](CCCNC(=N)N)C(=O)N[C@@H](Cc1ccccc1)C(=O)N[C@@H](CCCCN)C(=O)N[C@H]1CCCCNCc2ccccc2CNCCCC[C@@H](C(=O)N[C@@H](Cc2ccccc2)C(=O)N[C@@H](CCCCN)C(=O)N[C@@H](CCCCN)C(=O)N[C@@H](Cc2ccccc2)C(=O)N[C@H](C(N)=O)C(C)C)NC(=O)[C@H](CCCNC(=N)N)NC(=O)[C@H](Cc2ccccc2)NC(=O)[C@H](Cc2ccccc2)NC1=O,Active,Active,27,Dde,2,2,4,8,4,8,32,16,2,4,16,2,8,4,Active,Toxic,MIC (Staphylococcus aureus [16]): 8 µg/mL; Activity (HEK-293T [29]): Toxic; Activity (Acinetobacter baumannii [30]): Active; Activity (Staphylococcus aureus [31]): Active; Activity (Staphylococcus aureus [28]): Active
